Tests used:
[1] = test system: shSDHB-expressing HEK293FT tumor xenografts; assay: Tumor growth delay assay, shSDHB HEK293FT xenografts; assay type: in vivo, mouse
From the text: In vivo efficacy studies: HEK293FT xenografts. Female athymic nu/nu mice (Hsd:Athymic Nude-Foxnlnu, Envigo) were used for all in vivo xenograft studies. Mice were quarantined for at least 1 week before experimental manipulation. Tumors were formed using shRNA-expressing versions of the tumorigenic human embryonic kidney cell-derived line, HEK293FT. HEK293FT is a subline of HEK293 cells that has been transformed by expression of SV40 Large T-antigen. […], or shCTRL (non-targeted control) expressing HEK293FT cells were implanted subcutaneously (5×10^6 cells in 0.1 cc PBS) in the right flank of nude mice. Two efficacy studies were conducted. In one, mice were randomized into treatment and non-treated groups (10 mice/group) at day 3, with treatment initiation 4 days post implant. In a second independent in vivo efficacy study, mice were injected as above with 10 mice per group, and treatment was started only once the tumor volumes reached […]. For both studies, mice were visually observed daily and tumors were measured three times per week by calipers to determine tumor volume using the formula: Volume=L×W×W×0.532. Mice were fed with a grain based rodent diet containing Doxycycline at 200 mg/kg (Bioserv, Catalog #S3888). BMN-673 was solubilized in DMSO and diluted with PBS containing 10% dimethylacetamide (Sigma-Aldrich) and 6% Solutol (Sigma). BMN-673 (0.5 mg/kg, 0.2 cc), or vehicle (0.2 cc) was administered by oral gavage once daily for the duration of the experiment. Mean (geometric) tumor volume (mm^3) was plotted over time to monitor tumor growth. P-values were determined by ANOVA with repeated measures. In vivo efficacy studies: UOK 262 xenografts. Female athymic nu/nu mice (Hsd:Athymic Nude-Foxnlnu, Envigo) were used for all in vivo xenograft studies. Mice were quarantined for at least 1 week before experimental manipulation. UOK 262 cells were implanted subcutaneously using 5×10^6 cells in 0.1 cc PBS mixed with 0.1 cc of Corning Matrigel Matrix (Cat. No. 354234) per animal. Mice were randomized at day 3 day into two groups (n=10/group). […]

[2] = test system: poly-ADP-ribose (PAR); assay: Poly-ADP-Ribose ELISA in xenograft tumors; assay type: in vivo, mouse; details: 24 h post single dose (FIG. 4K)
Description: Tumors developed with mice on a rodent diet including doxycycline just as in the in vivo efficacy studies. Once tumors were at 80 mm^3 mice were gavaged with BMN-673 at 1 or 10 mg/kg or vehicle. Tumors were collected 24 hours later for and frozen at −80° C. The concentrations of BMN-673 in tumor samples were determined using liquid chromatography with tandem mass spectrometry (LC-MS/MS). In brief, an aliquot (30 μL) tumor homogenate was protein precipitated with volumes of methanol, and 5 μL of supernatant was injected into the LC-MS/MS system. LC-MS/MS analyses were performed on a Waters LC-MS/MS system consisting a Waters AQUITY UPLC system coupled with a TQ-XS triple quadrupole mass spectrometer (Milford, Mass., USA). […] BMN673 was monitored using the positive electrospray ionization mode at the most sensitive and specific mass transition, m/z 381.0>228.8. The linear calibration curve was established at BMN673 concentration range of 5-5000 nM in mouse serum. The precision and accuracy of quality control samples were within generally acceptable criteria for bioanalytical methods. Poly-ADP-Ribose ELISA. Poly-ADP-Ribose ELISA was performed per manufacturer's protocol using the PARP in vivo Pharmacodynamic Assay II Kit (Trevigen). 2 μg of protein input was used per replicate and luminescence reading were converted to pg PAR/μg protein using a standard curve. Statistics and Reproducibility. […]

Cn1ncnc1[C@H]1c2n[nH]c(=O)c3cc(F)cc(c23)N[C@@H]1c1ccc(F)cc1 [BMN-673, BMN-673 (Talazoparib)]
tumor growth vs vehicle, SDH-deficient tumors ([1]; treatment after tumors reached 95-150 mm^3, 0.5 mg/kg oral gavage once daily (FIG. 4G)): inhibited the growth | tumor growth vs vehicle, shSDHB tumors ([1]; treatment beginning four days after implantation, 0.5 mg/kg oral gavage once daily (FIG. 4D)): robust suppression of tumor growth | growth of SDHB-deficient tumors ([1]; two separate sets of in vivo efficacy studies, 0.5 mg/kg oral gavage once daily): significantly inhibited the growth | PAR levels by ELISA, SDHB knockdown vs shCTRL tumors [2]: reduced to the same extent

From patent US11311538B2, “Compositions and methods for targeting cancers” (YALE UNIVERSITY, priority 2018, dated 2022)
